Patent US20260199483A1 (Bright Angel Therapeutics Inc., priority 2022, published 2026)
Values after ≈ are worked out from the molar mass of the structure shown.

Legend:
[1] = Mammalian cell toxicity (Cell Titer-Glo); assay type: cell-based; conditions: human; HepG2 cells, 48 h incubation, Cell Titer-Glo luminescence
Protocol: HepG2 cells were seeded overnight at 500 cells/well in 384-well plate, then incubated with compounds (10-point concentration titration) for 48 h. Cell Titer-Glo® reagent ([…]) was added to each well and after 10-minute incubation at room temperature the luminescent signal was measured using an Envision plate reader (Perkin Elmer).

[2] = biological target: T1, purified recombinant Yck2 (Candida albicans, UniProt A0A1D8PKB4); assay: HotSpot kinase assay; assay type: biochemical, C. albicans
T1 construct: Yck2 residues 37-345 were PCR amplified from C. albicans genomic DNA; His6 (N); TEV protease site (N); made in house; host or cells: E. coli BL21(DE3)-Gold
T1 sequence (A0A1D8PKB4 entry or part of it): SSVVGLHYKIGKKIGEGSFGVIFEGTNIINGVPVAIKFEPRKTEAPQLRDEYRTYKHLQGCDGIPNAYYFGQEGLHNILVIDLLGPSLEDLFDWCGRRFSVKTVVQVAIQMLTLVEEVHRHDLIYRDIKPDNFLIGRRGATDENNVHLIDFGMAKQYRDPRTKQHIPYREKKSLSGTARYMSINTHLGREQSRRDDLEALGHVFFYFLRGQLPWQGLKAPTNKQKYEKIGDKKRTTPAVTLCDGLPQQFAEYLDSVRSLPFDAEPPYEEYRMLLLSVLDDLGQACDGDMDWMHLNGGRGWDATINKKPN
Protocol: IC50s were determined using the in vitro HotSpot kinase assay (purified enzymes, ^33P-ATP, an appropriate substrate and 1 μM ATP). For enzyme inhibition assays, compounds were tested in range of ten concentrations from 10 uM to 0.0005 uM using purified recombinant Yck2. Reaction conditions were 1 uM ATP, one hour incubation with inhibitor, and kinase activity detected using 33-ATP phosphorylation of an appropriately selected peptide substrate.
Yck2 residues 37-345 were PCR amplified from C. albicans genomic DNA and subcloned into the vector pMCSG53, which codes for a N-terminal His6 tag, TEV protease site, followed by the Yck2 protein. E. coli BL21(DE3)-Gold competent cells were transformed with this plasmid and the Yck2 protein was purified using methodology previously described (Stogios et al., ACS Chem. Biol. 13, 1322-1332 (2018)).

CaCi2 = assay: Antifungal sensitivity testing (broth microdilution MIC); assay type: cell-based; conditions: CaCi2, 96-well broth microdilution, compounds in DMSO
Protocol: Minimum inhibitory concentrations (MICs) were determined in flat bottom, 96-well plate format using a modified broth microdilution protocol as previously described (Singh et al., PLoS Pathog. 5, e1000532 (2009); LaFayette et al., PLoS Pathog. 6, 79-80 (2010)). Compounds were formulated in dimethyl sulfoxide (DMSO, Sigma-Aldrich Co.). Each compound was tested in duplicate in at least two independent experiments.

Row | SMILES | IC50 at 48 h [1] [µM] | IC50 [2] [µM] | MIC50 (CaCi2) [µM]
1 | Nc1nccc(-c2c(-c3ccc(F)cc3)ncn2C2CCN(CCCNCC(O)(Cn3cncn3)c3ccc(F)cc3F)CC2)n1 (stereo not shown) [Compound I-80, 1-((3-(4-(5-(2-aminopyrimidin-4-yl)-4-(4-fluorophenyl)-1H-imidazol-1-yl)piperidin-1-yl)propyl)amino)-2-(2,4-difluorophenyl)-3-(1H-1,2,4-triazol-1-yl)propan-2-ol] | > 20 | 0.00333 | –
2 | Nc1nccc(-c2c(-c3ccc(F)cc3)ncn2C2CCN(CCCn3c4c(c5cccc(Cl)c53)CCNC4)CC2)n1 [Compound I-231, 4-(1-(1-(3-(8-chloro-1,2,3,4-tetrahydro-9H-pyrido[3,4-b]indol-9-yl)propyl)piperidin-4-yl)-4-(4-fluorophenyl)-1H-imidazol-5-yl)pyrimidin-2-amine] | 1.84 | 0.00413 | > 25
3 | OC(Cn1cncn1)(c1ccc(F)cc1F)C(F)(F)c1ccc(C#Cc2ccc(NCc3ccc4c(-c5ccncc5)c(-c5ccc(F)cc5)nn4c3)cc2)cn1 (stereo not shown) [Compound I-268] | > 50 | – | 1.17 (≈ 0.899 µg/mL)
4 | O=C(NC1CCN(CC(O)(Cn2cncn2)c2ccc(F)cc2F)CC1)c1cccc2c(-c3ccncc3)c(-c3ccc(F)cc3)nn12 (stereo not shown) [Compound I-155, N-(1-(2-(2,4-difluorophenyl)-2-hydroxy-3-(1H-1,2,4-triazol-1-yl)propyl)piperidin-4-yl)-2-(4-fluorophenyl)-3-(pyridin-4-yl)pyrazolo[1,5-a]pyridine-7-carboxamide] | 10.1 | – | 0.781 (≈ 0.51 µg/mL)
5 | CC(C)(C)OC(=O)N1CCc2c(n(CCCN3CCC(n4cnc(-c5ccc(F)cc5)c4-c4ccnc(N)n4)CC3)c3ccc(Cl)cc23)C1 [Compound I-229, tert-butyl 9-(3-(4-(5-(2-aminopyrimidin-4-yl)-4-(4-fluorophenyl)-1H-imidazol-1-yl)piperidin-1-yl)propyl)-6-chloro-1,3,4,9-tetrahydro-2H-pyrido[3,4-b]indole-2-carboxylate] | 5.59 | 0.0164 | –
6 | C[C@@H](NCc1ccc2c(-c3ccncc3)c(-c3ccc(F)cc3)nn2c1)[C@](O)(Cn1cncn1)c1ccc(F)cc1F [Compound I-266, (2R,3R)-2-(2,4-difluorophenyl)-3-(((2-(4-fluorophenyl)-3-(pyridin-4-yl)pyrazolo[1,5-a]pyridin-6-yl)methyl)amino)-1-(1H-1,2,4-triazol-1-yl)butan-2-ol] | 19.5 | – | 0.195 (≈ 0.111 µg/mL)
7 | OC(CNCCOc1cccc2c(-c3ccncc3)c(-c3ccc(F)cc3)nn12)(Cn1cncn1)c1ccc(F)cc1F (stereo not shown) [Compound I-153, 2-(2,4-difluorophenyl)-1-((2-((2-(4-fluorophenyl)-3-(pyridin-4-yl)pyrazolo[1,5-a]pyridin-7-yl)oxy)ethyl)amino)-3-(1H-1,2,4-triazol-1-yl)propan-2-ol] | > 20 | 0.0487 | 1.56 (≈ 0.914 µg/mL)
8 | OC(Cn1cnnn1)(c1ccc(F)cc1F)C(F)(F)c1ccc(-c2ccc(CNCc3ccc4c(-c5ccncc5)c(-c5ccc(F)cc5)nn4c3)cc2)cn1 (stereo not shown) [Compound I-269, 2-(2,4-difluorophenyl)-1,1-difluoro-1-(5-(4-((((2-(4-fluorophenyl)-3-(pyridin-4-yl)pyrazolo[1,5-a]pyridin-6-yl)methyl)amino)methyl)phenyl)pyridin-2-yl)-3-(1H-tetrazol-1-yl)propan-2-ol] | 3.67 | – | –
9 | O=C(NCC(O)(Cn1cncn1)c1ccc(F)cc1F)c1ccc2c(-c3ccncc3)c(-c3ccc(F)cc3)nn2c1 (stereo not shown) [Compound I-115, N-(2-(2,4-difluorophenyl)-2-hydroxy-3-(1H-1,2,4-triazol-1-yl)propyl)-2-(4-fluorophenyl)-3-(pyridin-4-yl)pyrazolo[1,5-a]pyridine-6-carboxamide] | > 20 | 0.00367 | 1.27 (≈ 0.723 µg/mL)
10 | Fc1ccc(-c2nn3cc(CNC[C@H]4CO[C@@](Cn5cncn5)(c5ccc(F)cc5F)C4)ccc3c2-c2ccncc2)cc1 (stereo in doubt) [Compound I-257, 1-(cis-5-((1H-1,2,4-triazol-1-yl)methyl)-5-(2,4-difluorophenyl)tetrahydrofuran-3-yl)-N-((2-(4-fluorophenyl)-3-(pyridin-4-yl)pyrazolo[1,5-a]pyridin-6-yl)methyl)methanamine] | 5.57 | – | 0.295 (≈ 0.176 µg/mL)
11 | O=C(NC1CCN(C[C@](O)(Cn2cncn2)c2ccc(F)cc2F)CC1)c1ccc2c(-c3ccncc3)c(-c3ccc(F)cc3)nn2c1 [Compound I-102, (S)-N-(1-(2-(2,4-difluorophenyl)-2-hydroxy-3-(1H-1,2,4-triazol-1-yl)propyl)piperidin-4-yl)-2-(4-fluorophenyl)-3-(pyridin-4-yl)pyrazolo[1,5-a]pyridine-6-carboxamide] | 2.24 | 0.0466 | 3.12 (≈ 2.04 µg/mL)
12 | Cn1cc(-c2ccncc2COC(=O)C2CCN(CC(O)(Cn3cncn3)c3ccc(F)cc3F)CC2)c(-c2ccc(F)cc2)n1 (stereo not shown) [Compound I-239, (4-(3-(4-fluorophenyl)-1-methyl-1H-pyrazol-4-yl)pyridin-3-yl)methyl 1-(2-(2,4-difluorophenyl)-2-hydroxy-3-(1H-1,2,4-triazol-1-yl)propyl)piperidine-4-carboxylate] | > 20 | 0.185 | 0.195 (≈ 0.123 µg/mL)
13 | Fc1ccc(-c2nn3cc(CNC[C@H]4CO[C@](Cn5cncn5)(c5ccc(F)cc5F)C4)ccc3c2-c2ccncc2)cc1 (stereo in doubt) [Compound I-256, 1-(trans-5-((1H-1,2,4-triazol-1-yl)methyl)-5-(2,4-difluorophenyl)tetrahydrofuran-3-yl)-N-((2-(4-fluorophenyl)-3-(pyridin-4-yl)pyrazolo[1,5-a]pyridin-6-yl)methyl)methanamine] | 11.8 | – | –
14 | Cn1cc(-c2ccnc3c2C(=O)N(CCC2CCN(CC(O)(Cn4ccnn4)c4ccc(F)cc4F)CC2)C3)c(-c2ccc(F)cc2)n1 (stereo not shown) [Compound I-250] | > 50 | – | –
15 | OC(Cn1cncn1)(c1ccc(F)cc1F)C(F)(F)c1ccc(C#Cc2ccc(OCCNCc3ccc4c(-c5ccncc5)c(-c5ccc(F)cc5)nn4c3)cc2)cn1 (stereo not shown) [Compound I-270] | 1.54 | – | 0.586 (≈ 0.476 µg/mL)
16 | OC(Cn1cncn1)(c1ccc(F)cc1F)C(F)(F)c1ccc(C#Cc2ccc(CNCc3ccc4c(-c5ccncc5)c(-c5ccc(F)cc5)nn4c3)cc2)cn1 (stereo not shown) [Compound I-267, 2-(2,4-difluorophenyl)-1,1-difluoro-1-(5-((4-((((2-(4-fluorophenyl)-3-(pyridin-4-yl)pyrazolo[1,5-a]pyridin-6-yl)methyl)amino)methyl)phenyl)ethynyl)pyridin-2-yl)-3-(1H-1,2,4-triazol-1-yl)propan-2-ol] | 8.03 | – | –
17 | O=C(NC1CCN(C[C@@](O)(Cn2cncn2)c2ccc(F)cc2F)CC1)c1ccc2c(-c3ccncc3)c(-c3ccc(F)cc3)nn2c1 [Compound I-103, (R)-N-(1-(2-(2,4-difluorophenyl)-2-hydroxy-3-(1H-1,2,4-triazol-1-yl)propyl)piperidin-4-yl)-2-(4-fluorophenyl)-3-(pyridin-4-yl)pyrazolo[1,5-a]pyridine-6-carboxamide] | 6.38 | 0.0495 | 0.0488 (≈ 0.0319 µg/mL)
18 | Cn1cc(-c2ccnc3c2C(=O)N(C2CCN(CC(O)(Cn4cncn4)c4ccc(F)cc4F)CC2)C3)c(-c2ccc(F)cc2)n1 (stereo not shown) [Compound I-242, 6-(1-(2-(2,4-difluorophenyl)-2-hydroxy-3-(1H-1,2,4-triazol-1-yl)propyl)piperidin-4-yl)-4-(3-(4-fluorophenyl)-1-methyl-1H-pyrazol-4-yl)-6,7-dihydro-5H-pyrrolo[3,4-b]pyridin-5-one] | > 20 | 0.0153 | –
19 | O=C(CC(O)(Cn1cncn1)c1ccc(F)cc1F)NCc1ccc2c(-c3ccncc3)c(-c3ccc(F)cc3)nn2c1 (stereo not shown) [Compound I-255, 3-(2,4-difluorophenyl)-N-((2-(4-fluorophenyl)-3-(pyridin-4-yl)pyrazolo[1,5-a]pyridin-6-yl)methyl)-3-hydroxy-4-(1H-1,2,4-triazol-1-yl)butanamide] | 22.5 | – | 1.56 (≈ 0.91 µg/mL)
